Measurements taken from patent US8501205B2, “Insect repellent composition” (priority 2006, dated 2013).
Marks after values point to notes of the source that are not given here.

Experiments:
host-seeking mosquitoes = test: Study A Guatemala field trial, human-landing catch on treated lower legs; format: in vivo, Psorophora varipes, Aedes Ochlerotatus taeniorhynchus
From the text: Study A—Guatemala Study. The following repellent formulations (% by weight) were used: (1) C15: repellent containing the amounts of ingredients described in Example 1—the PMD obtained from acid modification of Coryinbia citriodora oil, CAS: 42822-86-6, purchased from Chemian Technology Ltd under the trademark Citriodiol®; (2)115: repellent containing the amounts of ingredients described in Example 1—the PMD obtained from Coolact® 38D; (3) T20: containing 20 wt % PMD instead of 15%, obtained from Coolact® 38D; (4) positive control: 15% DEET (N,N-diethyl-meta-toluamide, CAS 134-62-3; Sigma-Aldrich Co.) in ethanol; (5) negative control: mixture of 20% mineral oil and ethanol.
(§1) Study A and B, Both studies were controlled double blind, human-landing catch design. All solutions were placed in unmarked containers labeled by code. On any one night, human volunteers had both lower legs treated with either one of the PMD/LG candidate repellents or a positive or negative control at a rate of 0.002 ml/cm^2 between the ankle and the knee. Volunteers' leg length and circumference were measured to calculate surface area and the correct dose of treatment was measured using a micropipette, and applied using a latex glove to minimize absorption of material onto the hand of the volunteer. During the human-landing catches, the volunteers wore shorts to the knee, work boots, and a loose bug jacket (ProBuy) to ensure that blood-seeking mosquitoes had access only to their lower legs.
(§2) The designated locations within the field sites were 10 m from each other and a minimum of 20 m from alternate sources of kairomones such as houses and livestock. As insect repellents act over a distance of less than a meter, and the maximum distance of host attraction of a single human to mosquitoes is 10 m,^29 the design eliminates any “relativity effect” where insects choose between two hosts simultaneously. Mosquitoes were collected from the lower legs of the volunteers once they had settled—without the need to wait for biting—by using a mouth aspirator, flashlight, and a collection vessel. Collection vessels were changed each hour to provide hourly measures of repellency. Umbrellas were also provided, to protect the volunteers from any rain showers that might wash away their repellent.
(§3) All volunteers were experienced at conducting man-landing catches. A form outlining procedure was given to the volunteers to ensure that they had full understanding of the potential risks of a study of this kind. In addition, each was given chloroquine (Guatemala) or Mefloquine (Peru) prophylaxis in accordance with WHO guidelines.^30 Full ethical clearance was obtained from Universidad del Valle, Guatemala (Study A); and from London School of Hygiene and Tropical Medicine Ethics Board and Instituto Nacional de Salud, Peru (Study B).
Study A. The three repellents and two controls were applied to the five volunteers at 1430 hrs, and man-landing catches were performed at the field site for one hour before and after sunset (1730-1930 hrs), when the evening mosquito biting is at its peak as shown by preliminary man-landing catches. The times chosen allowed an assessment of the protection afforded by the repellent over 5 hours while exposing volunteers to bites for only 2 hours. This helped minimize exposure and risk to the collectors. The study was a balanced 5×5 Latin-square design that required each volunteer to test each treatment five times throughout the study over a period of twenty-five nights. Every evening, each individual was allocated one of five treatments, and sat in one of five allocated positions. Consequently, the volunteers changed position every five days.
Mosquitoes were maintained overnight and killed by cooling prior to identification the following morning. Data were normalized using natural log ([…]) and analyzed with General Linear Model (GLM) using Minitab 11.0 for Windows. […]

An. darlingi = conditions: for 4 hours after application; biting pressure 75 mosquito landings per human-hour; cited from earlier work
All mosquitoes = test: Study B Peru field trial, human-landing catch, all mosquitoes; format: in vivo, mosquitoes (86% Anopheles darlingi); conditions: for % P = percentage protection / AM = arithmetic mean mosquito landings/hour / WM = William's mean mosquito landings/hour: All mosquitoes
From the text: (§4) Study B—Peru Study. Repellent formulations (% by weight) were used: (1) “PMD+LG” containing about 16% PMD as indicated in Example 1—PMD obtained from Coolact® 38D; (2) positive control: 20% DEET (Sigma Aldridge) in ethanol (Sigma-Aldrich Co.); (3) negative control: 20% mineral oil (ExxonMobil Corporation) in ethanol.
as §1, §2, §3
(§5) Study B. The repellent and two controls were applied at 1600 hrs, and man-landing collections were performed at the field, between 1800 and 2200 hours, as this is the time of peak An. darlingi activity in the area (Chan, A. unpublished data). The times chosen allowed an assessment of the protection afforded by the repellent over to be made of relative protection of the samples for a period of 6 hours while exposing volunteers to bites for only 4 hours. This helped minimize exposure and risk to the collectors. The volunteers took a 15-minute break between 2000 hrs and 2015 hrs. The study was a 3×3 balanced Latin-square design performed using three volunteers over nine nights, with volunteers changing positions every third night. Due to unforeseen circumstances, one of the volunteers was replaced after 4 nights, and this was factored into the statistical analysis.
(§6) Mosquitoes were maintained overnight and killed by cooling prior to identification the following morning. Data were normalized using natural log ([…]) and analyzed with General Linear Model (GLM) using Minitab 11.0 for Windows. Further testing of individual variables was performed using Kruskal Wallis, as data could not be sufficiently normalized to use one-way Analysis of Variance (ANOVA) due to low collection numbers on repellent-treated individuals.

Anopheles darlingi = test: Study B Peru field trial, human-landing catch, Anopheles darlingi; format: in vivo
From the text: as §4, §1, §2, §3, §5, §6

[1] = Mean of 4 and 5 hours post application

With `CCN(CC)C(=O)c1cccc(C)c1` [15% DEET, N,N-diethyl-meta-toluamide] the “% P = percentage protection” value (host-seeking mosquitoes; 4 hours post application) was 94.52%, the “WM = William's mean mosquito landings/hour” value (host-seeking mosquitoes; 4 hours post application) was 3.63 mosquito landings/hour and the “AM = arithmetic mean mosquito landings/hour” value (host-seeking mosquitoes; 4 hours post application, 0.002 ml/cm^2 on lower legs) was 6.33 mosquito landings/hour. For the same compound, the “% P = percentage protection” value (host-seeking mosquitoes; 5 hours post application) was 87.85%, the “AM = arithmetic mean mosquito landings/hour” value (host-seeking mosquitoes; 5 hours post application) was 12.21 mosquito landings/hour and the “WM = William's mean mosquito landings/hour” value (host-seeking mosquitoes; 5 hours post application) was 4.87 mosquito landings/hour. For the same compound, the “% P = percentage protection” value (host-seeking mosquitoes; [1]) was 91.42%, the “AM = arithmetic mean mosquito landings/hour” value (host-seeking mosquitoes; [1]) was 9.27 mosquito landings/hour and the “WM = William's mean mosquito landings/hour” value (host-seeking mosquitoes; [1]) was 3.60^c mosquito landings/hour. The “protection from host-seeking mosquitoes” value (host-seeking mosquitoes; up to five hours after application, biting pressure 108 mosquitoes per man hour) was 91% and the protection (An. darlingi) was 85%.
For `CCN(CC)C(=O)c1cccc(C)c1` [20% DEET, N,N-diethyl-meta-toluamide], the average protection (All mosquitoes; 6 hours after application / over the duration of the trial) was 62%, the “% P = percentage protection” value (All mosquitoes; 3 hours post application) was 65.77% and the “AM = arithmetic mean mosquito landings/hour” value (All mosquitoes; 3 hours post application) was 15.22 mosquito landings/hour. For the same compound, the “WM = William's mean mosquito landings/hour” value (All mosquitoes; 3 hours post application) was 10.59 mosquito landings/hour, the “% P = percentage protection” value (All mosquitoes; 4 hours post application) was 68.12% and the “AM = arithmetic mean mosquito landings/hour” value (All mosquitoes; 4 hours post application) was 19.78 mosquito landings/hour. For the same compound, the “WM = William's mean mosquito landings/hour” value (All mosquitoes; 4 hours post application) was 16.12 mosquito landings/hour, the “% P = percentage protection” value (All mosquitoes; 5 hours post application) was 63.80% and the “AM = arithmetic mean mosquito landings/hour” value (All mosquitoes; 5 hours post application) was 13.89 mosquito landings/hour. For the same compound, the “WM = William's mean mosquito landings/hour” value (All mosquitoes; 5 hours post application) was 11.68 mosquito landings/hour, the “% P = percentage protection” value (All mosquitoes; 6 hours post application) was 52.08% and the “AM = arithmetic mean mosquito landings/hour” value (All mosquitoes; 6 hours post application) was 18.44 mosquito landings/hour. The “WM = William's mean mosquito landings/hour” value (All mosquitoes; 6 hours post application) was 15.28 mosquito landings/hour, the “% P = percentage protection” value (All mosquitoes; Mean of 3-6 hours) was 63.63% and the “AM = arithmetic mean mosquito landings/hour” value (All mosquitoes; Mean of 3-6 hours) was 16.83 mosquito landings/hour. For the same compound, the “WM = William's mean mosquito landings/hour” value (All mosquitoes; Mean of 3-6 hours) was 13.30^c mosquito landings/hour, the “% P = percentage protection” value (Anopheles darlingi; 3 hours post application) was 56.43% and the “AM = arithmetic mean mosquito landings/hour” value (Anopheles darlingi; 3 hours post application) was 13.56 mosquito landings/hour. For the same compound, the “WM = William's mean mosquito landings/hour” value (Anopheles darlingi; 3 hours post application) was 9.59 mosquito landings/hour, the “% P = percentage protection” value (Anopheles darlingi; 4 hours post application) was 66.53% and the “AM = arithmetic mean mosquito landings/hour” value (Anopheles darlingi; 4 hours post application) was 18.33 mosquito landings/hour. The “WM = William's mean mosquito landings/hour” value (Anopheles darlingi; 4 hours post application) was 14.96 mosquito landings/hour, the “% P = percentage protection” value (Anopheles darlingi; 5 hours post application) was 62.21% and the “AM = arithmetic mean mosquito landings/hour” value (Anopheles darlingi; 5 hours post application) was 12.89 mosquito landings/hour. The “WM = William's mean mosquito landings/hour” value (Anopheles darlingi; 5 hours post application) was 10.59 mosquito landings/hour, the “% P = percentage protection” value (Anopheles darlingi; 6 hours post application) was 51.41% and the “AM = arithmetic mean mosquito landings/hour” value (Anopheles darlingi; 6 hours post application) was 17.22 mosquito landings/hour. The “WM = William's mean mosquito landings/hour” value (Anopheles darlingi; 6 hours post application) was 13.59 mosquito landings/hour, the “% P = percentage protection” value (Anopheles darlingi; Mean of 3-6 hours) was 61.40% and the “AM = arithmetic mean mosquito landings/hour” value (Anopheles darlingi; Mean of 3-6 hours) was 15.00 mosquito landings/hour. For the same compound, the “WM = William's mean mosquito landings/hour” value (Anopheles darlingi; Mean of 3-6 hours) was 12.07^c mosquito landings/hour.
